The values below come from the supplement of paper PMC12317010.

SMILES strings stand for the structures. Where a name gives a salt, the structure may show the parent alone.

A short description of the data set: collision cross section in nitrogen (drift tube, single-field); higher = larger gas-phase ion size.
The mark [1] stands for this setting: ion type: [M+H], ion source: APCI, ion mode: Positive.
Where [2] appears, read: ion type: [M+H], ion source: ESI, ion mode: Positive.
[3] abbreviates: ion type: [M+Na], ion source: ESI, ion mode: Positive.
Setting [4] is: ion type: [M-H], ion source: ESI, ion mode: Negative.
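Further: chemical standards at 10 µM analysed by drift tube IMS-QTOF MS in about 3.95 torr nitrogen, mean of duplicate injections differing ≤1%, mass error below 10 ppm.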

Take `CC(=O)OCC(=O)[C@@]12N=C(C)O[C@@H]1C[C@H]1[C@@H]3CCC4=CC(=O)C=C[C@]4(C)[C@H]3[C@@H](O)C[C@@]12C` [Deflazacort]: the “collision cross section in nitrogen” value reads like this: under setting [1], 205.2 Å²; under setting [2], 204.8 Å²; under setting [3], 213.4 Å²; under setting [4], 206.7 Å².
`CC(C)c1ccc2c(c1)CC[C@H]1[C@](C)(CN)CCC[C@]21C` [Dehydroabietylamine acetate]: the “collision cross section in nitrogen” value under setting [1] came to 188.9 Å².
For the compound `CC(C)c1ccc2c(c1)CC[C@H]1[C@](C)(CN)CCC[C@]21C` [Dehydroabietylamine], the “collision cross section in nitrogen” value under setting [2] is on record as 188.3 Å².
For `Cc1ccc2nc(-c3ccc(N)cc3)sc2c1` [Dehydrothio-4-toluidine], the “collision cross section in nitrogen” value under setting [1] is given as 153.9 Å²; the “collision cross section in nitrogen” value under setting [2] stood at 153.9 Å²; the “collision cross section in nitrogen” value (ion type: [M+], ion source: APCI, ion mode: Positive) is given as 153.5 Å²; the “collision cross section in nitrogen” value under setting [4] was 155.8 Å².
Consider `CCNc1nc(N)nc(Cl)n1` [Deisopropylatrazine], for which the “collision cross section in nitrogen” value under setting [1] is given as 133.5 Å² and the “collision cross section in nitrogen” value under setting [2] turned out to be 133.7 Å².
`CCS(=O)(=O)CCSP(=O)(OC)OC` [Demeton-S-methyl sulfone]: the “collision cross section in nitrogen” value reads like this: under setting [1], 144.5 Å²; under setting [2], 145 Å²; under setting [3], 155.1 Å².
As for `CCOP(=O)(OCC)SCCSCC` [Demeton-S], the “collision cross section in nitrogen” value under setting [3] was found to be 162.4 Å².
On to `CC(C)Nc1nc(N)nc(Cl)n1` [Desethylatrazine], for which the “collision cross section in nitrogen” value was 139.3 Å² under setting [1] and 139.4 Å² under setting [2].
Consider `C[C@@H]1C[C@H]2[C@@H]3CCC4=CC(=O)C=C[C@]4(C)[C@@]3(F)[C@@H](O)C[C@]2(C)[C@@]1(O)C(=O)COP(=O)(O)O` [Dexamethasone sodium phosphate], for which the “collision cross section in nitrogen” value under setting [4] was 201 Å².
Regarding `C[C@@H]1C[C@H]2[C@@H]3CCC4=CC(=O)C=C[C@]4(C)[C@@]3(F)[C@@H](O)C[C@]2(C)[C@@]1(O)C(=O)CO` [Dexamethasone], the “collision cross section in nitrogen” value is given as 177.6 Å² under setting [2] and 216.8 Å² under setting [3].
On to `COc1ccc2c(c1)[C@]13CCCC[C@@H]1[C@H](C2)N(C)CC3` [Dextromethorphan hydrobromide], for which the “collision cross section in nitrogen” value is reported as 166.1 Å² under setting [1] and 166.7 Å² under setting [2].
Regarding `CCCCC(CC)COC(=O)c1ccccc1C(=O)OCC(CC)CCCC` (configuration not stated) [Di(2-ethylhexyl) phthalate], the “collision cross section in nitrogen” value under setting [3] is 215.9 Å².
On the same count and under the same terms, with `COCCOC(=O)c1ccccc1C(=O)OCCOC` [Di(2-methoxyethyl) phthalate] the figure was 161.7 Å²; with `C=C(C)C(=O)OCCOCCOC(=O)C(=C)C` [Di(ethylene glycol) dimethacrylate], 159.5 Å².
Still for that read-out and setting: with `CCCCCCCCOC(=O)c1ccccc1C(=O)OCCCCCCCC` [Di-n-octyl phthalate] the figure was 214.6 Å²; with `CCCOC(=O)c1ccccc1C(=O)OCCC` [Di-n-propylphthalate], 171.5 Å².
For the compound `Cc1ccc(C2OC[C@@H]3OC(c4ccc(C)cc4)O[C@H]([C@H](O)CO)[C@@H]3O2)cc1` (some centres not stated) [Di-p-methylbenzylidenesorbitol], the “collision cross section in nitrogen” value under setting [1] is on record as 191.5 Å², the “collision cross section in nitrogen” value under setting [2] was 193.1 Å² and the “collision cross section in nitrogen” value under setting [3] came to 194.4 Å².
For `C=CC(=O)NC(C)(C)CC(C)=O` [Diacetone acrylamide], the “collision cross section in nitrogen” value under setting [3] came to 145.2 Å².
As to `C=CCOC(=O)c1ccccc1C(=O)OCC=C` [Diallyl phthalate], the “collision cross section in nitrogen” value under setting [3] came out at 159 Å².
Turning to `CC(=O)Nc1c(I)c(NC(C)=O)c(I)c(C(=O)O)c1I` [Diatrizoate sodium], the “collision cross section in nitrogen” value under setting [2] amounted to 175.5 Å² and the “collision cross section in nitrogen” value under setting [3] is recorded as 179.4 Å².
The matching figures for `CC(=O)Nc1c(I)c(NC(C)=O)c(I)c(C(=O)O)c1I` [Diatrizoic acid]: 179.4 Å² and 183.6 Å².
